In patent US20160250228A1 (Acerus Pharmaceuticals Corporation, priority 2011, published 2016):

B1: SHBG (protein, UniProt P04278 30-402, looked up)
Sex hormone-binding globulin: LRPVLPTQSAHDPPAVHLSNGPGQEPIAVMTFDLTKITKTSSSFEVRTWDPEGVIFYGDTNPKDDWFMLGLRDGRPEIQLHNHWAQLTVGAGPRLDDGRWHQVEVKMEGDSVLLEVDGEEVLRLRQVSGPLTSKRHPIMRIALGGLLFPASNLRLPLVPALDGCLRRDSWLDKQAEISASAPTSLRSCDVESNPGIFLPPGTQAEFNLRDIPQPHAEPWAFSLDLGLKQAAGSGHLLALGTPENPSWLSLHLQDQKVVLSSGSGPGLDLPLVLGLPLQLKLSMSRVVLSQGSKMKALALPPLGLAPLLNLWAKPQGRLFLGALPGEDSSTSFCLNGLWAQGQRLDVDQALNRSHEIWTHSCPQSPGNGTDASH

Tests used:
[1] = reported normal range, cited from earlier work; for Normal Range Max: maximum; for Normal Range Min: minimum
[2] = Baseline (24-hour pre-dose) and normal ranges of endogenous analytes (free/total testosterone, DHT, estradiol, SHBG); conditions: for Pooled Baseline Max / Pooled Baseline Min: baseline range observed, all cohorts pooled; for Pooled Baseline Max / Baseline Max, Dose Cohort 600 (μg) / Baseline Max, Dose Cohort 1200 (μg) / Baseline Max, Dose Cohort 1800 (μg): maximum; for Pooled Baseline Min / Baseline Min, Dose Cohort 600 (μg) / Baseline Min, Dose Cohort 1200 (μg) / Baseline Min, Dose Cohort 1800 (μg): minimum; for Baseline Max, Dose Cohort 600 (μg) / Baseline Min, Dose Cohort 600 (μg) / Baseline Max, Dose Cohort 1200 (μg) / Baseline Min, Dose Cohort 1200 (μg) / Baseline Max, Dose Cohort 1800 (μg) / Baseline Min, Dose Cohort 1800 (μg): baseline range; for Baseline Max, Dose Cohort 600 (μg) / Baseline Min, Dose Cohort 600 (μg): 600 μg dose cohort; for Baseline Max, Dose Cohort 1200 (μg) / Baseline Min, Dose Cohort 1200 (μg): 1200 μg dose cohort; for Baseline Max, Dose Cohort 1800 (μg) / Baseline Min, Dose Cohort 1800 (μg): 1800 μg dose cohort
[3] = General properties of testosterone: stability; type: physicochemical; conditions: in air

Row | Molecule | Normal Range Max [1] | Normal Range Min [1] | Pooled Baseline Max [2] | Pooled Baseline Min [2] | Baseline Max, Dose Cohort 600 (μg) [2] | Baseline Min, Dose Cohort 600 (μg) [2] | Baseline Max, Dose Cohort 1200 (μg) [2] | Baseline Min, Dose Cohort 1200 (μg) [2] | Baseline Max, Dose Cohort 1800 (μg) [2] | Baseline Min, Dose Cohort 1800 (μg) [2] | Stability [3]
1 | C[C@]12CCC(=O)C[C@@H]1CC[C@@H]1[C@@H]2CC[C@]2(C)[C@@H](O)CC[C@@H]12 [Dihydrotestosterone] | 22.00 ng/dL | 4.00 ng/dL | 32.60 ng/dL | 5.02 ng/dL | 22.10 ng/dL | 5.29 ng/dL | 25.30 ng/dL | 5.04 ng/dL | 32.60 ng/dL | 5.02 ng/dL | –
2 | C[C@]12CC[C@@H]3c4ccc(O)cc4CC[C@H]3[C@@H]1CC[C@@H]2O [Estradiol] | – | – | 12.2 ng/dL | 1.7 ng/dL | 12.2 ng/dL | 2.09 ng/dL | 11.9 ng/dL | 1.7 ng/dL | 9.74 ng/dL | 1.77 ng/dL | –
3 | C[C@]12CC[C@H]3[C@@H](CCC4=CC(=O)CC[C@@]43C)[C@@H]1CC[C@@H]2O [Testosterone, 17β-Hydroxyandrost-4-en-3-one] | – | – | – | – | – | – | – | – | – | – | powder. It is odourless, and stable in air.
4 | B1 | 114.00 nmol/L | 18.00 nmol/L | 137.00 nmol/L | 15.30 nmol/L | 102.00 nmol/L | 15.30 nmol/L | 86.70 nmol/L | 16.00 nmol/L | 137.00 nmol/L | 25.20 nmol/L | –
